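Cultured in 96-well plates, cells were exposed to test compound for 48 hours across five concentrations. GI50 is the concentration that inhibits growth by half. TGI: concentration producing complete growth inhibition.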
What was measured:
Assay in all cases: inhibition of tumour cell growth, NCI panel, 48 h
[1] = system: 786-0 renal
[2] = system: A498 renal
[3] = system: A549 NSCLC
[4] = system: ACHN renal
[5] = system: BT-549 breast
[6] = system: CAKI-1 renal
[7] = system: CCRF-CEM leukemia
[8] = system: COLO 205 colon
[9] = system: DU-145 prostate
[10] = system: EKVX NSCLC
[11] = system: HCC-2998 colon
[12] = system: HCT-116 colon
[13] = system: HCT-15 colon
[14] = system: HL-60(TB) leukemia
[15] = system: HOP-62 NSCLC
[16] = system: HOP-92 NSCLC
[17] = system: HS 578T breast
[18] = system: HT29 colon
[19] = system: IGROV1 ovarian
[20] = system: K-562 leukemia
[21] = system: KM12 colon
[22] = system: LOX IMVI melanoma
[23] = system: M14 melanoma
[24] = system: MALME-3M melanoma
[25] = system: MCF7 breast
[26] = system: MDA-MB-231 breast
[27] = system: MDA-MB-435
[28] = system: MOLT-4 leukemia
[29] = system: NCI-H226 lung
[30] = system: NCI-H23 lung
[31] = system: NCI-H460 lung
[32] = system: NCI-H522 lung
[33] = system: NCI/ADR-RES ovarian
[34] = system: OVCAR-3 ovarian
[35] = system: OVCAR-4 ovarian
[36] = system: OVCAR-5 ovarian
[37] = system: OVCAR-8 ovarian
[38] = system: PC-3 prostate
[39] = system: RPMI-8226 leukemia
[40] = system: RXF 393 renal
[41] = system: SF-268 CNS
[42] = system: SF-295 CNS
[43] = system: SF-539 CNS
[44] = system: SK-MEL-2 melanoma
[45] = system: SK-MEL-28 melanoma
[46] = system: SK-MEL-5 melanoma
[47] = system: SK-OV-3 ovarian
[48] = system: SN12C renal
[49] = system: SNB-19 CNS
[50] = system: SNB-75 CNS
[51] = system: SR leukemia
[52] = system: SW-620 colon
[53] = system: T-47D breast
[54] = system: TK-10 renal
[55] = system: U251 CNS
[56] = system: UACC-257 melanoma
[57] = system: UACC-62 melanoma
[58] = system: UO-31 renal
[59] = system: MDA-N

O=C(/C=C\c1ccc(O)c(O)c1)c1ccccc1O
GI50 [1]: 10.6 µM
TGI [1]: 23.3 µM
GI50 [2]: 16 µM
TGI [2]: 32.8 µM
GI50 [3]: 17.1 µM
TGI [3]: > 100 µM
GI50 [4]: 8.31 µM
TGI [4]: 24 µM
GI50 [5]: 3.61 µM
TGI [5]: 18.8 µM
GI50 [6]: 4.45 µM
TGI [6]: 40 µM
GI50 [7]: 645 nM
TGI [7]: > 100 µM
GI50 [8]: 8.99 µM
TGI [8]: 21.6 µM
GI50 [9]: 11.7 µM
TGI [9]: 45.3 µM
GI50 [10]: 14.4 µM
TGI [10]: > 100 µM
GI50 [11]: 13.9 µM
TGI [11]: 27 µM
GI50 [12]: 11.9 µM
TGI [12]: 24.9 µM
GI50 [13]: 2520 nM
TGI [13]: 19.1 µM
GI50 [14]: 2400 nM
TGI [14]: 6.05 µM
GI50 [15]: 12.6 µM
TGI [15]: 50.8 µM
GI50 [16]: 3.77 µM
TGI [16]: 27.7 µM
GI50 [17]: 17.2 µM
TGI [17]: 81.9 µM
GI50 [18]: 18.4 µM
TGI [18]: 47.1 µM
GI50 [19]: 711 nM
TGI [19]: 23.8 µM
GI50 [20]: 12.5 µM
TGI [20]: 71.5 µM
GI50 [21]: 11.8 µM
TGI [21]: 27.6 µM
GI50 [22]: 11 µM
TGI [22]: 23.1 µM
GI50 [23]: 12.9 µM
TGI [23]: 29.9 µM
GI50 [24]: 11.4 µM
TGI [24]: 32.5 µM
GI50 [25]: 14.6 µM
TGI [25]: > 100 µM
GI50 [26]: 9.51 µM
TGI [26]: 37 µM
GI50 [27]: 6.45 µM
TGI [27]: 39.4 µM
GI50 [28]: 1890 nM
TGI [28]: 97.5 µM
GI50 [29]: 11 µM
TGI [29]: 39.1 µM
GI50 [30]: 12.7 µM
TGI [30]: 32.8 µM
GI50 [31]: 15.1 µM
TGI [31]: 49.8 µM
GI50 [32]: 214 nM
TGI [32]: 809 nM
GI50 [33]: 10.8 µM
TGI [33]: 36.1 µM
GI50 [34]: 8.86 µM
TGI [34]: 24.2 µM
GI50 [35]: 8.73 µM
TGI [35]: 98.7 µM
GI50 [36]: 18 µM
TGI [36]: 40.4 µM
GI50 [37]: 14.7 µM
TGI [37]: 56.8 µM
GI50 [38]: 13.4 µM
TGI [38]: 89.8 µM
GI50 [39]: 578 nM
TGI [39]: 29.6 µM
GI50 [40]: 4.21 µM
TGI [40]: 17.2 µM
GI50 [41]: 12.1 µM
TGI [41]: 59 µM
GI50 [42]: 17.7 µM
TGI [42]: 54.4 µM
GI50 [43]: 6.69 µM
TGI [43]: 26.5 µM
GI50 [44]: 12 µM
TGI [44]: 41.7 µM
GI50 [45]: 15.1 µM
TGI [45]: 42.7 µM
GI50 [46]: 11.4 µM
TGI [46]: 28.4 µM
GI50 [47]: 17.7 µM
TGI [47]: 71.6 µM
GI50 [48]: 11.8 µM
TGI [48]: 37.5 µM
GI50 [49]: 17.4 µM
TGI [49]: 91.8 µM
GI50 [50]: 14.7 µM
TGI [50]: 94.3 µM
GI50 [51]: 3.17 µM
TGI [51]: 69.8 µM
GI50 [52]: 11.3 µM
TGI [52]: 26.4 µM
GI50 [53]: 5.57 µM
TGI [53]: 45.5 µM
GI50 [54]: 18.2 µM
TGI [54]: > 100 µM
GI50 [55]: 7.95 µM
TGI [55]: 33.1 µM
GI50 [56]: 12.8 µM
TGI [56]: 44 µM
GI50 [57]: 12.1 µM
TGI [57]: 26.1 µM
GI50 [58]: 2200 nM
TGI [58]: 18 µM

COC(=O)/C=C1\SC2(OC1=Nc1ccccc1)C1CC3CC(C1)CC2C3 (stereo unspecified)
TGI [2]: > 100 µM
TGI [3]: > 100 µM
TGI [4]: > 100 µM
TGI [5]: > 100 µM
TGI [6]: > 100 µM
TGI [7]: > 100 µM
TGI [10]: > 100 µM
TGI [12]: > 100 µM
TGI [13]: > 100 µM
TGI [14]: > 100 µM
TGI [15]: > 100 µM
TGI [16]: > 100 µM
TGI [17]: > 100 µM
TGI [18]: > 100 µM
TGI [19]: > 100 µM
TGI [20]: > 100 µM
TGI [21]: > 100 µM
TGI [22]: > 100 µM
TGI [25]: > 100 µM
TGI [26]: > 100 µM
TGI [27]: > 100 µM
TGI [59]: > 100 µM
TGI [28]: > 100 µM
TGI [29]: > 100 µM
TGI [31]: > 100 µM
TGI [32]: > 100000 nM
TGI [33]: > 100 µM
TGI [34]: > 100 µM
TGI [35]: > 100 µM
TGI [36]: > 100 µM
TGI [37]: > 100 µM
TGI [38]: > 100 µM
TGI [39]: > 100 µM
TGI [40]: > 100 µM
TGI [42]: > 100 µM
TGI [43]: > 100 µM
TGI [44]: > 100 µM
TGI [45]: > 100 µM
TGI [46]: > 100 µM
TGI [47]: > 100 µM
TGI [48]: > 100 µM
TGI [49]: > 100 µM
TGI [50]: > 100 µM
TGI [51]: > 100 µM
TGI [52]: > 100 µM
TGI [54]: > 100 µM
TGI [55]: > 100 µM
TGI [56]: > 100 µM
TGI [57]: > 100 µM
TGI [58]: > 100 µM
